Data on 6 compounds can be found in patent US5064953A, “Intermediates cephalosporin derivatives” (Mochida Pharmaceutical Co., Ltd., priority 1983, dated 1991).

Each structure is given as a SMILES string. Converted amounts (≈) assume the structure as drawn.

Common to all, as to experiment: Antibacterial activity in vitro, agar plate dilution method (MIC)
What all share (type): cell-based

In assay [1] the test system is Klebsiella pneumoniae IF03317. The conditions noted are these: 10^6 cells/ml, Mueller Hinton agar, 37° C., 20 hours. On the procedure:
(§1) Antibacterial activity in vitro was determined in accordance with the agar plate dilution method. A platinum loop each of test bacteria (10^6 cells/ml), cultured in Mueller Hinton broth, was inoculated on Mueller Hinton agar plates which contained test compounds at various concentrations. After cultivating at 37° C. for 20 hours, the minimum inhibitory concentration (MIC μg/ml) was determined.

For assay [2], the system named is Staphylococcus aureus Smith. The following applies: 10^6 cells/ml, Mueller Hinton agar, 37° C., 20 hours. On the procedure:
as §1

Assay [3] concerns Serratia marcescens IF03759. The conditions noted are these: 10^6 cells/ml, Mueller Hinton agar, 37° C., 20 hours. On the procedure: as §1
Assay [4] deals with Pseudomonas aeruginosa IF03445. The following applies: 10^6 cells/ml, Mueller Hinton agar, 37° C., 20 hours. The method, then:
as §1

A further assay concerns Escherichia coli 67. The following applies: 10^6 cells/ml, Mueller Hinton agar, 37° C., 20 hours. On the procedure:
as §1

A further assay deals with Proteus morganii IF03848. The conditions noted are these: Morganella morganii, 10^6 cells/ml, Mueller Hinton agar, 37° C., 20 hours. The method, then: as §1

For `CO/N=C(\C(=O)N[C@@H]1C(=O)N2C(C(=O)O)=C(CSc3nc(N)cc4ncnn34)CS[C@H]12)c1csc(N)n1` [Compound 22, (6R,7R)-7-[2-(2-amino-4-thiazolyl)-2-(Z-methoxyimino)acetamido]-3-[(7-amino-s-triazolo[1,5-c]pyrimidin-5-yl)thiomethyl]-8 oxo-5-thia-1-azabicyclo[4.2.0]oct-2-ene-2-carboxylic acid], the minimum inhibitory concentration (MIC) (usually the lowest concentration found to suppress growth) in assay [1] was below 0.05 µg/mL; in assay [2] it was 1.57 µg/mL (≈ 2.79 µM); in assay [3] it was 0.39 µg/mL (≈ 0.693 µM); in assay [4], 50 µg/mL (≈ 88.9 µM); in the assay with Escherichia coli 67, 0.1 µg/mL (≈ 0.178 µM); in the assay on Proteus morganii IF03848 it was 0.78 µg/mL (≈ 1.39 µM).

As to `CC(=O)Oc1ccc(C(=O)O/N=C(\C(=O)N[C@@H]2C(=O)N3C(C(=O)O)=C(CSc4cc(C)nc5nc(C(=O)O)nn45)CS[C@H]23)c2csc(N)n2)cc1OC(C)=O` [Compound 27, (6R,7R)-7-[2-(2-amino-4-thiazolyl)-2-[Z-(3,4-diacetoxybenzoyl)oxyimino]acetamido]-3-[(2-carboxy-5-methyl-s-triazolo[1,5-a]pyrimidin-7-yl)thiomethyl]-8-oxo-5-thia-1-azabicyclo[4.2.0]oct-2-ene-2-carboxylic acid], the MIC is below 0.05 µg/mL in assay [1]; 1.57 µg/mL (≈ 1.93 µM) in assay [2]; below 0.05 µg/mL in assay [3]; 0.39 µg/mL (≈ 0.48 µM) in assay [4]; below 0.05 µg/mL against Escherichia coli 67; 0.2 µg/mL (≈ 0.246 µM) in the assay with Proteus morganii IF03848.

Consider `CO/N=C(\C(=O)N[C@@H]1C(=O)N2C(C(=O)O)=C(CSc3cc(OC)nc4ncnn34)CS[C@H]12)c1csc(N)n1` [Compound 16, (6R,7R)-7-[2-(2-amino-4-thiazolyl)-2-(Z-methoxyimino)acetamido]-3-[(5-methoxy-s-triazolo[1,5-a]pyrimidin-7-yl)thiomethyl]-8-oxo-5-thia-1-azabicyclo[4.2.0]oct-2-ene-2-carboxylic acid], for which the MIC is below 0.05 µg/mL in assay [1]; 1.57 µg/mL (≈ 2.72 µM) in assay [2]; 0.39 µg/mL (≈ 0.675 µM) in assay [3]; 100 µg/mL (≈ 173 µM) in assay [4]; 0.1 µg/mL (≈ 0.173 µM) against Escherichia coli 67; 3.13 µg/mL (≈ 5.42 µM) in the assay on Proteus morganii IF03848.

As to `CO/N=C(\C(=O)N[C@@H]1C(=O)N2C(C(=O)O)=C(CSc3nn4c(=O)cc(C)nc4s3)CS[C@H]12)c1csc(N)n1` [Compound 24, (6R,7R)-7-[2-(2-amino-4-thiazolyl)-2-(Z-methoxyimino)acetamido]-3-[(7-methyl-5oxo-5H-1,3,4-thiadiazolo[3,2-a]pyrimidin-2-yl)thiomethyl]-8-oxo-5-thia-1-azabicyclo[4.2.0]oct-2-ene-2-carboxylic acid], the MIC is below 0.05 µg/mL in assay [1]; 0.78 µg/mL (≈ 1.31 µM) in assay [2]; 0.2 µg/mL (≈ 0.336 µM) in assay [3]; 50 µg/mL (≈ 84.1 µM) in assay [4]; below 0.05 µg/mL in the assay on Escherichia coli 67; 0.39 µg/mL (≈ 0.656 µM) in the assay on Proteus morganii IF03848.

In the case of `Cc1cc(SCC2=C(C(=O)O)N3C(=O)[C@@H](NC(=O)/C(=N\OC(=O)c4ccc[nH]4)c4csc(N)n4)[C@H]3SC2)n2nc(C(=O)O)nc2n1` [Compound 26, (6R,7R)-7-[2-(2-amino-4-thiazolyl)-2-[Z-(2-pyrrolecarbonyl)oxyimino]acetamido]-3-[(2-carboxy-5-methyl-s-triazolo[1,5-a]pyrimidin-7-yl)thiomethyl]-8-oxo-5-thia-1-azabicyclo[4.2.0]oct-2-ene-2-carboxylic acid], the MIC was below 0.05 µg/mL in assay [1]; 1.57 µg/mL (≈ 2.29 µM) in assay [2]; 0.2 µg/mL (≈ 0.292 µM) in assay [3]; 25 µg/mL (≈ 36.5 µM) in assay [4]; 0.2 µg/mL (≈ 0.292 µM) against Escherichia coli 67; 0.78 µg/mL (≈ 1.14 µM) against Proteus morganii IF03848.

Consider `CO/N=C(\C(=O)N[C@@H]1C(=O)N2C(C(=O)O)=C(CSc3nnc4nc(C(=O)O)cc(O)n34)CS[C@H]12)c1csc(N)n1` [Compound 21, (6R,7R)-7-[2-(2-amino-4-thiazolyl)-2-(Z-methoxyimino)acetamido]-3-[(7-carboxy-5-hydroxy-s-triazolo[4,3-a]pyrimidin-3-yl)thiomethyl]-8-oxo-5-thia-1-azabicyclo[4.2.0]oct-2-ene-2-carboxylic acid], for which the MIC in assay [1] is 0.1 µg/mL (≈ 0.165 µM); in assay [2] it was 25 µg/mL (≈ 41.1 µM); in assay [3], 1.57 µg/mL (≈ 2.58 µM); in assay [4] it was above 100 µg/mL; against Escherichia coli 67, 0.78 µg/mL (≈ 1.28 µM); in the assay on Proteus morganii IF03848 it was 3.13 µg/mL (≈ 5.15 µM).
